Measurements: the CheMixHub viscosity set

Assay: xn = mol fraction of the nth substance listed

CCc1ccccc1 + CCCCCC
viscosity [mPa·s], 101 kPa
Conditions | x2 = 0.14 | x2 = 0.247 | x2 = 0.337 | x2 = 0.486 | x2 = 0.641 | x2 = 0.731
298.15 K | 0.56 | 0.51 | 0.47 | 0.416 | – | 0.339
308.15 K | 0.499 | 0.454 | 0.421 | 0.371 | 0.326 | 0.302
323.15 K | 0.426 | 0.39 | 0.363 | 0.321 | 0.283 | 0.263

COC(C)(C)C + CCCCCC
303.15 K, 101 kPa
Conditions | viscosity [mPa·s]
x1 = 0.1579 | 0.314
x1 = 0.2829 | 0.318
x1 = 0.3671 | 0.321
x1 = 0.4436 | 0.323
x1 = 0.5404 | 0.327
x1 = 0.604 | 0.33
x1 = 0.7122 | 0.335
x1 = 0.8674 | 0.342

Clc1ccccc1 + CCCCCC
viscosity [mPa·s], 101.33 kPa
Conditions | x2 = 0.0793 | x2 = 0.1624 | x2 = 0.2494 | x2 = 0.3407 | x2 = 0.4367 | x2 = 0.5377 | x2 = 0.644 | x2 = 0.7562 | x2 = 0.8747
303.15 K | 0.6623 | 0.6095 | 0.5578 | 0.5101 | 0.4658 | 0.4254 | 0.3927 | 0.3549 | 0.3227
313.15 K | 0.6011 | 0.5513 | 0.5124 | 0.4699 | 0.4288 | 0.3946 | 0.3647 | 0.3305 | 0.3021
323.15 K | 0.5314 | 0.4893 | 0.4543 | 0.4164 | 0.3835 | 0.3551 | 0.3268 | 0.2997 | 0.2745

CCCCCCCCCCCCCCCCCCCCCC + CCCCCCC
viscosity [mPa·s], 101.3 kPa
Conditions | x1 = 0.2 | x1 = 0.4 | x1 = 0.479 | x1 = 0.596 | x1 = 0.798
303.2 K | 0.9761 | – | – | – | –
313.2 K | 0.8502 | 1.621 | 2.137 | – | –
323.1 K | 0.7493 | 1.39 | 1.826 | 2.449 | 3.197

COC(C)(C)C + CCCCCCC
303.15 K, 101 kPa
Conditions | viscosity [mPa·s]
x1 = 0.1976 | 0.373
x1 = 0.2745 | 0.369
x1 = 0.3423 | 0.364
x1 = 0.4536 | 0.359
x1 = 0.5656 | 0.356
x1 = 0.6441 | 0.353
x1 = 0.7685 | 0.35
x1 = 0.8606 | 0.349

COC(C)(C)C + CCCCCCCC
viscosity [mPa·s], 101 kPa
Conditions | 293.15 K | 298.15 K | 303.15 K | 308.15 K
x1 = 0.0937 | 0.5238 | 0.5009 | 0.4686 | 0.4492
x1 = 0.1345 | – | – | 0.444 | –
x1 = 0.1875 | 0.5065 | 0.4844 | 0.454 | 0.4355
x1 = 0.2831 | – | – | 0.423 | –
x1 = 0.2942 | 0.4873 | 0.4666 | 0.4382 | 0.4201
x1 = 0.3682 | – | – | 0.417 | –
x1 = 0.412 | 0.4668 | 0.447 | 0.4207 | 0.4035
x1 = 0.4989 | – | – | 0.406 | –
x1 = 0.511 | 0.4502 | 0.4313 | 0.4067 | 0.3903
x1 = 0.5482 | – | – | 0.401 | –
x1 = 0.5952 | 0.4367 | 0.4189 | 0.3957 | 0.3793
x1 = 0.699 | 0.4201 | 0.4027 | 0.3811 | 0.3653
x1 = 0.791 | – | – | 0.388 | –
x1 = 0.7965 | 0.4039 | 0.3871 | – | 0.3518
x1 = 0.8407 | – | – | 0.381 | –
x1 = 0.9009 | 0.3867 | 0.3707 | 0.3523 | 0.3376

CCCCCCCCCCCCCCCCCCCCCC + CCCCCCCCCC
viscosity [mPa·s], 101.3 kPa
Conditions | x2 = 0.4 | x2 = 0.5 | x2 = 0.6 | x2 = 0.799
303.2 K | – | – | – | 1.47
313.2 K | 2.93 | 2.53 | 2.05 | 1.24

Clc1ccccc1 + CCCCCCCCCC
viscosity [mPa·s], 101 kPa
Conditions | x1 = 0.1146 | x1 = 0.1985 | x1 = 0.31 | x1 = 0.3792 | x1 = 0.4894 | x1 = 0.6146 | x1 = 0.6949 | x1 = 0.8073 | x1 = 0.9173
308.15 K | 0.7161 | 0.703 | 0.6849 | 0.6723 | 0.6588 | 0.6526 | 0.6521 | 0.6598 | 0.6691
313.15 K | 0.6733 | 0.6572 | 0.6458 | 0.6387 | 0.6287 | 0.624 | 0.6222 | 0.6228 | 0.6302

CCCC(C)C + CCCCCCCCCCCC
298 K, 101.33 kPa
Conditions | viscosity [mPa·s]
x1 = 0.1004 | 1.205
x1 = 0.2007 | 1.075
x1 = 0.3018 | 0.939
x1 = 0.4027 | 0.8181
x1 = 0.5008 | 0.7124
x1 = 0.6002 | 0.6097
x1 = 0.6996 | 0.5148
x1 = 0.8002 | 0.4229
x1 = 0.9003 | 0.3443

CCCC(C)C + CCCCCCCCCCCCCC
298 K, 101.33 kPa
Conditions | viscosity [mPa·s]
x1 = 0.1041 | 1.795
x1 = 0.2003 | 1.595
x1 = 0.3021 | 1.362
x1 = 0.4053 | 1.136
x1 = 0.5024 | 0.9502
x1 = 0.6012 | 0.7806
x1 = 0.7022 | 0.6276
x1 = 0.8003 | 0.4899
x1 = 0.8985 | 0.3762

CCCC(C)C + CCCCCCCCCCCCCCCC
298 K, 101.33 kPa
Conditions | viscosity [mPa·s]
x1 = 0.1177 | 2.572
x1 = 0.2071 | 2.199
x1 = 0.3082 | 1.835
x1 = 0.4013 | 1.53
x1 = 0.4982 | 1.241
x1 = 0.6029 | 0.9821
x1 = 0.7034 | 0.7606
x1 = 0.8025 | 0.5679
x1 = 0.9006 | 0.3949

C=CC(=O)OCC + CCCCCCCCCCO
viscosity [mPa·s], 101.3 kPa
Conditions | x1 = 0.0861 | x1 = 0.235 | x1 = 0.302 | x1 = 0.4261 | x1 = 0.5383 | x1 = 0.7248 | x1 = 0.8036 | x1 = 0.8763 | x1 = 0.9389 | x1 = 0.9688
298.15 K | 8.526 | 5.017 | 3.969 | 2.618 | 1.895 | 1.076 | 0.86 | 0.702 | 0.602 | 0.563
308.15 K | 6.006 | 3.812 | 3.085 | 2.104 | 1.515 | 0.898 | 0.73 | – | 0.525 | 0.497

CCc1ccccc1 + CCCCCCCCCCO
viscosity [mPa·s], 101 kPa
Conditions | 298.15 K | 308.15 K
x1 = 0.0666 | 9.53 | 6.54
x1 = 0.1392 | 7.494 | 5.177
x1 = 0.1932 | 6.24 | 4.343
x1 = 0.2642 | 4.904 | 3.44
x1 = 0.3355 | 3.841 | 2.703
x1 = 0.3936 | 3.152 | 2.225
x1 = 0.4483 | 2.623 | 1.883
x1 = 0.5238 | 2.056 | 1.499
x1 = 0.598 | 1.632 | 1.206
x1 = 0.6621 | 1.35 | 1.023
x1 = 0.7309 | 1.118 | 0.863
x1 = 0.7953 | 0.951 | 0.744
x1 = 0.8668 | 0.802 | 0.659
x1 = 0.9396 | 0.693 | 0.597

C=CC(=O)OCC + CCCCCCCCO
viscosity [mPa·s], 101.3 kPa
Conditions | x1 = 0.0771 | x1 = 0.2017 | x1 = 0.2664 | x1 = 0.3869 | x1 = 0.4933 | x1 = 0.6865 | x1 = 0.7722 | x1 = 0.8504 | x1 = 0.9275 | x1 = 0.9634
298.15 K | 5.444 | 3.576 | 2.914 | 2.043 | 1.543 | 0.96 | 0.785 | 0.681 | 0.582 | 0.546
308.15 K | 4.096 | 2.812 | 2.301 | 1.663 | 1.268 | 0.825 | 0.678 | 0.586 | 0.507 | 0.478

C=CC(=O)OCC + CCCCCCCO
viscosity [mPa·s], 101.3 kPa
Conditions | x1 = 0.0736 | x1 = 0.1906 | x1 = 0.2456 | x1 = 0.3599 | x1 = 0.4687 | x1 = 0.6637 | x1 = 0.7551 | x1 = 0.8399 | x1 = 0.9223 | x1 = 0.9662
298.15 K | 4.585 | 3.017 | 2.513 | 1.864 | 1.399 | 0.923 | 0.778 | 0.655 | 0.576 | 0.534
308.15 K | 3.306 | 2.411 | 2.01 | 1.531 | 1.18 | 0.778 | 0.658 | 0.564 | 0.505 | 0.471

COC(C)(C)C + CCCCCCO
viscosity [mPa·s], 101 kPa
Conditions | x1 = 0.0204 | x1 = 0.0304 | x1 = 0.0495
298.15 K | 4.315 | 4.175 | 3.925
303.15 K | – | – | 3.395

COCCOCCOCCOCCOC + CCCCCCO
viscosity [mPa·s], 100 kPa
Conditions | x2 = 0.1043 | x2 = 0.2031 | x2 = 0.3014 | x2 = 0.4023 | x2 = 0.5043 | x2 = 0.6003 | x2 = 0.7007 | x2 = 0.8057 | x2 = 0.8986
293.15 K | 3.597 | 3.447 | 3.317 | 3.222 | 3.167 | 3.167 | 3.216 | 3.482 | 3.977
298.15 K | 3.177 | 3.048 | 2.933 | 2.852 | 2.8 | 2.797 | 2.835 | 3.049 | 3.453
303.15 K | 2.83 | 2.716 | 2.617 | 2.543 | 2.494 | 2.488 | 2.52 | 2.688 | 3.023
308.15 K | 2.538 | 2.438 | 2.35 | 2.282 | 2.237 | 2.227 | 2.251 | 2.387 | 2.661
313.15 K | 2.293 | 2.204 | 2.124 | 2.062 | 2.019 | 2.007 | 2.023 | 2.131 | 2.356
318.15 K | 2.093 | 2.012 | 1.94 | 1.88 | 1.845 | 1.826 | 1.838 | 1.926 | 2.111

Clc1cccc2ccccc12 + CCCCCCO
viscosity [mPa·s], 101.33 kPa
Conditions | x1 = 0.1047 | x1 = 0.2004 | x1 = 0.3023 | x1 = 0.3992 | x1 = 0.5019 | x1 = 0.6012 | x1 = 0.6993 | x1 = 0.8002 | x1 = 0.9013
298.15 K | 3.951 | 3.68 | 3.366 | 3.133 | 2.903 | 2.781 | 2.706 | 2.638 | 2.647
303.15 K | 3.335 | 3.105 | 2.858 | 2.67 | 2.506 | 2.455 | 2.44 | 2.304 | 2.337
308.15 K | 2.608 | 2.423 | 2.248 | 2.084 | 1.971 | 1.951 | 1.942 | 1.969 | 2.066

Clc1ccccc1 + CCCCCO
293.15 K, 101.33 kPa
Conditions | viscosity [mPa·s]
x2 = 0.0511 | 0.816
x2 = 0.1017 | 0.852
x2 = 0.1449 | 0.892
x2 = 0.198 | 0.936
x2 = 0.2665 | 1.017
x2 = 0.3688 | 1.195
x2 = 0.4687 | 1.387
x2 = 0.5602 | 1.637
x2 = 0.5789 | 1.697
x2 = 0.7339 | 2.339
x2 = 0.8618 | 3.062
x2 = 0.9524 | 3.666
